The record followed here is PubChem BioAssay AID2305 (GlaxoSmithKline (GSK), 2010).

One may read the IC50 as the point on the concentration scale where inhibition reaches its midpoint. High values mean weaker potency, low ones greater potency.

Where “and” joins values, the source holds several entries; their conditions need not be identical. Equal values may be shown once.

The test system of this test is P. falciparum 3D7 growth, pLDH absorbance. Briefly: P. falciparum 3D7 growth inhibition, dose response, strain 3D7 (AID 2305).

For the compound `Cc1nc2c(=O)sc3ccccc3c2n1Cc1ccccc1`, the IC50 amounted to 880 nM. For the compound `Cc1ccc(C(=O)Nc2cc(C(F)(F)F)cc(C(F)(F)F)c2)cc1[N+](=O)[O-]`, the half-maximal inhibitory concentration (IC50) is 930 nM. For `CN1CCC(Oc2ccc(CN3CC[C@H](NC(=O)c4ccc(Cl)c(F)c4)C3)c3ccccc23)C1` (stereo partly specified), the half-maximal inhibitory concentration (IC50) turned out to be 740 nM. Under `COc1ccc2nccc(CCN3C[C@H](CNCc4ccc5c(n4)NC(=O)CS5)[C@H](O)C3)c2n1` stands 1460 nM; under `CN(C)C(CNC(=O)c1cc(-c2ccncc2)c(-c2cc3ccccc3[nH]2)o1)c1ccccc1` (stereo unspecified), 840 nM. `O=C(NC1CC1)c1cnc(N2CCN(Cc3c(F)cccc3Cl)CC2)c(Cl)c1`: the half-inhibitory concentration (IC50) came to 910 nM.

Regarding `COc1cc2c(cc1C(F)(F)F)N(C(=O)Nc1cc(OC(F)(F)F)cc(-c3cccnc3)c1)CC2`, the 50% inhibitory concentration (IC50) worked out at 40 nM.

`O=C(Nc1ccc(Cl)cc1)c1ccc(CN2CCCN(Cc3cccc(O)c3)CC2)cc1` came in with a half-inhibitory concentration (IC50) of 390 nM.

The compound `O=C(/C=C/c1ccc(Cl)c(Cl)c1)Nc1cccc(CN2CCC(c3c[nH]c4ccccc34)CC2)c1` displayed a concentration for half-maximal inhibition (IC50) of 670 nM. This IC50 is about 1.7-fold higher than that of the compound before. Under `N#Cc1ccc2[nH]cc(-c3cn4cc(SC5CCCC5)ccc4n3)c2c1` stands 940 nM; under `Oc1ccc(CCNc2nc(NCc3ccccc3-c3ccc(C(F)(F)F)cc3)nc(NC3CCNCC3)n2)cc1`, 920 nM; under `O=C(CC1CCCCC1)NCC(NCCCNc1cc(=O)c2ccccc2[nH]1)c1cc(Br)cc(Br)c1` (stereo unspecified), 1050 nM. In turn, `Cn1c(CN2CCC(N3CCc4cc(NC(=O)c5ccco5)ccc43)C2)cc2ccccc21` (stereo unspecified) displayed a concentration for half-maximal inhibition (IC50) of 880 nM. The IC50 values of the last two compounds are within 1.5-fold of each other.

Compound `O=S(=O)(Nc1ccc(CCN2CCC(N3CCCCC3)CC2)cc1)c1ccc2ccccc2c1` had an IC50 of 1010 nM.

In turn, `CCCCNC(=O)[C@H](CC1CCCCC1)NC(=O)c1ccc(O)c(-c2ccc(Cl)c(Cl)c2)c1` showed an IC50 of 160 nM. In the case of `O=S(=O)(NCCN1CCCC1)c1cccc(-c2ccc(CNCc3ccccc3)cc2)c1`, the IC50 was 1000 nM. Compared with the last compound, the IC50 is about 6.2-fold higher. `CCn1cc(CN2CCCC(C(=O)Nc3ccc(-c4nc5ccccc5[nH]4)cc3)C2)c(C)n1` (stereo unspecified) had a concentration for half-maximal inhibition (IC50) of 800 nM. Under `O=C(NCCCCN1CC=C(c2ccc3c(c2OCC2CC2)CCCC3)CC1)c1ccc(-c2ccc(C(F)(F)F)cc2)cc1` stands 540 nM. Under `O=C(NCc1ccccc1)c1ncn(CCCN2CCC(N3CCCC3)CC2)c1-c1ccc(Cl)c(Cl)c1` stands 1120 nM; under `CC(C)C(=O)NC(c1ccc(N(C)C)cc1)c1cc(Cl)c2cccnc2c1O` (stereo unspecified), 860 nM. Compound `NC(N)=NN=Cc1ccc2c(c1)Cc1ccccc1-2` returned an IC50 of 590 nM. The result for `CN(C)CCOc1cc(NC(=O)c2ccc(-c3ccc(Cl)cc3Cl)cc2)ccc1-c1ccccc1` reads 910 nM; that for `COc1ccc(Oc2ccc(-c3c(C)[nH]c(C)c(Cl)c3=O)cc2)cc1`, 140 nM.

Compound `Cc1ccc(C)c2c1[nH]c1ccc(C3=NCCN3)cc12` gave a concentration for half-maximal inhibition (IC50) of 500 nM.

The compound `O=C(Nc1cccc(CN2CCN(Cc3ccc(O)cc3)CC2)c1)c1ccc(Cl)c(Cl)c1` had an IC50 of 250 nM. The result for `CN1CCN(CC(=O)Nc2cccc(-c3ccc(-c4nc5ccc(C(F)(F)F)cc5[nH]4)s3)c2)CC1` reads 310 nM. In turn, `CC1(C)N=C(N)N=C(N)N1c1ccc(I)cc1` displayed an IC50 of 40 nM.

Take `CCc1ccc(NC(=O)c2ccc(CN3CCCN(Cc4cccc(C)c4)CC3)cc2)cc1`: the concentration for half-maximal inhibition (IC50) was determined as 1130 nM. Under `N#Cc1ccc(-c2ccc(C(=O)NC3CCN(CCN4CCc5c(cccc5C(F)(F)F)C4)CC3)cc2)cc1` stands 700 nM; under `Cc1cn(CC(=O)Nc2cccc(-c3cccc(-c4nc5ccc(C(F)(F)F)cc5[nH]4)c3)c2)c(=O)[nH]c1=O`, 680 nM.

For the compound `Cc1cc2c(cc1Cl)N(C(=O)Nc1cc(F)cc(-c3cncnc3)c1)CC2`, the half-maximal inhibitory concentration (IC50) amounted to 380 nM.

`COc1ccc(CNC2Cc3ccccc3C2)cc1-c1ccc(S(=O)(=O)NCc2cccnc2)s1` gave a half-inhibitory concentration (IC50) of 1110 nM. The result for `O=C(Nc1ccc(-c2nc3ccccc3[nH]2)cc1)c1ccc(Cl)c([N+](=O)[O-])c1` reads 800 nM.

`Cc1cccc2[nH]c(-c3cccc(-c4ccc(NC(=O)Nc5ccc(F)c(F)c5F)cc4)c3)nc12` showed an IC50 of 170 nM. With `NC(=O)c1cc2nc(Nc3ccc(F)cc3)nc(Nc3ccc(S(N)(=O)=O)cc3)c2[nH]1`, the half-maximal inhibitory concentration (IC50) stood at 800 nM. `Cc1cc(N2CCCC2)nc(Nc2ccc(NC(=O)c3ccccc3)cc2)n1` registered an IC50 of 980 nM.

`Cc1ccc(NC(=O)c2ccc(CN3CCCN(Cc4cccc(O)c4)CC3)cc2)cc1C`: the IC50 is 860 nM.

On to `CN1CCCC(OC(=O)c2ccccc2)C1` (stereo unspecified), for which the IC50 is 760 nM. `CCOC(=O)c1c(C)noc1Nc1ccc(OC)cc1` showed a 50% inhibitory concentration (IC50) of 670 nM. As for `CO/C(=C\C=C\c1cc2cc(Cl)c(Cl)cc2[nH]1)C(=O)NCCCN1CCN(c2ccncc2)CC1`, the half-maximal inhibitory concentration (IC50) came out at 730 nM. This IC50 and that of the compound before are within 1.5-fold of each other. For `CC(C)(C)N1CCC(N(Cc2ccc(-c3ccc(C(F)(F)F)cc3)cc2)C(=O)Cn2c(CCc3cccc(F)c3F)cc(=O)c3ccccc32)CC1`, the half-maximal inhibitory concentration (IC50) was 790 nM. The result for `CC(=O)Nc1ccc(C(=O)Nc2cccc(-c3ccc(-c4nc5ccc(F)cc5[nH]4)s3)c2)cn1` reads 230 nM. `O=C(NCc1cccc(CN2CCOCC2)c1)c1cc(Br)cc(N2CCN(c3ccncc3)CC2)c1`: the 50% inhibitory concentration (IC50) stood at 860 nM. Turning to `Nc1ccc(-c2cc(Cl)cc(Cl)c2)cc1-c1cc2ccccc2[nH]1`, the IC50 was 690 nM.

Turning to `O=c1cc(NCCCNCc2scc(I)c2I)[nH]c2ccccc12`, the IC50 was 590 nM. The IC50 values of the last two compounds are within 1.5-fold of each other. The result for `COc1ccc(OC)c(-c2cccc(-c3cccc(NC(=O)c4ccc([N+](=O)[O-])o4)c3)n2)c1` reads 370 nM; that for `O=C(NCCN1CCCCC1)c1ccc(Nc2nccc(Nc3ccc(Oc4ccccc4)cc3)n2)cc1`, 550 nM; that for `COc1cc(Nc2ccc3cc(S(=O)(=O)N4CCCCC4C)ccc3n2)cc(OC)c1OC` (stereo unspecified), 1240 nM. Take `COc1ccc2ncc(F)c([C@@H](O)CN3CCC(NCc4ccc5c(c4)NCCS5)CC3)c2n1`: the 50% inhibitory concentration (IC50) amounted to 500 nM. The compound `CCCNCc1ccc(-c2ccc(CN(CCOC)C(=O)/C=C/c3ccccc3C)cc2)nc1` gave an IC50 of 900 nM. `O=C(/C=C/c1ccc(Cl)c(Cl)c1)N1CCC(CN2CC[C@H](c3c[nH]c4ccccc34)[C@@H](O)C2)CC1` registered an IC50 of 810 nM. Take `Cc1c(C)c2c(c(C)c1O)CC[C@](C)(C(=O)NC1CCC(CN3CCC(c4c[nH]c5ccccc45)CC3)CC1)O2` (stereo partly specified): the IC50 is 880 nM and 1120 nM.

As for `Nc1nc(N)c2c(ccc3c2ccn3CCCCO)n1`, the IC50 came to 120 nM.

Compound `O=C(Cn1c(CCc2cccc(F)c2F)cc(=O)c2cccnc21)N(CCn1ccnc1)Cc1ccc(-c2ccc(C(F)(F)F)cc2)cc1` came in with a concentration for half-maximal inhibition (IC50) of 670 nM. This IC50 is about 5.6-fold higher than that of the compound before. For `COc1cccc2c(Oc3ccccc3C)ccnc12`, the 50% inhibitory concentration (IC50) amounted to 1230 nM. Against the preceding compound, the IC50 is about 1.8-fold higher. The result for `COc1cc2nc(N[C@@H](CO)c3ccccc3)nc(NCc3ccccc3)c2cc1OC` reads 660 nM.

In the case of `c1ccc(CCNCc2cccc(-c3ccc(CNc4ccc5ncccc5c4)cc3)c2)cc1`, the half-inhibitory concentration (IC50) was determined as 810 nM. Compound `CC(=O)N(Cc1ccccc1-c1ccc(CNCCc2ccccc2)cc1)C1CCN(Cc2ccccc2)CC1` returned an IC50 of 480 nM. Under `CC(C)CNCc1cccc(-c2cccc(CN(CCCN3CCN(C)CC3)C(=O)/C=C/c3ccccc3)c2)c1` stands 930 nM; under `O=C(NCCCN1CCCCC1)c1cccc(Nc2nccc(Nc3ccc(Oc4ccccc4)cc3)n2)c1`, 820 nM; under `COC(=O)C1(NC(=O)c2ccc(-n3nc(C)c(-c4ccccc4)c3N)cc2)CCCC1`, 370 nM.

`CCCCN(CCCC)CCNC(=O)c1cccc(NC(=O)N2CCc3cc(SC)c(C(F)(F)F)cc32)c1`: the IC50 worked out at 810 nM. In the case of `Cc1cccc(CNc2nc(C)cc(NCCC(=O)Nc3ccccc3)n2)c1`, the IC50 amounted to 1050 nM. The result for `COc1cc(Cc2cnc(N)nc2N)cc(OC)c1OCCCCC(=O)O` reads 1140 nM; that for `CN(C)CCC(=O)c1ccccc1`, 330 nM; that for `COc1ccc(-c2nc3c(NCc4ccccc4)nccc3[nH]2)c(OC)c1`, 780 nM. The result for `O=C(C=Cc1ccc(-c2ccccc2)cc1)NC1CCC(CN2CCC(c3c[nH]c4ccccc34)CC2)CC1` (stereo unspecified) reads 810 nM and 740 nM; that for `CC(=O)Nc1ccc(-c2nc3ccc(-c4nc5ccc(NC(C)=O)cc5[nH]4)cc3[nH]2)cc1`, 240 nM. The compound `O=C(NCCNc1ccnc(Nc2ccc(F)cc2)n1)Nc1ccc2c(c1)OCO2` yielded an IC50 of 680 nM. As for `CC(C)N1CCN(C(=O)c2ccc(CN(C)CCCN3CCN(c4cccc(Cl)c4Cl)CC3)s2)CC1`, the IC50 was 990 nM. The result for `CCNS(=O)(=O)c1ccc(Oc2ccc([N+](=O)[O-])cc2)cc1` reads 170 nM. The compound `O=C(Nc1ccccc1)c1ccc(-c2cc3ccncc3cc2OC2CCNCC2)s1` returned a half-maximal inhibitory concentration (IC50) of 650 nM. `CCN(CC)CCOC(=O)C(OC)(c1ccccc1)c1ccccc1` had a 50% inhibitory concentration (IC50) of 1020 nM. Compound `Cc1ccc(O)c(-c2cc(C(=O)Nc3ccc(S(=O)(=O)N4CCCCC4)cc3)[nH]n2)c1` gave a half-inhibitory concentration (IC50) of 810 nM. On to `Clc1cccnc1N1CCN(c2ncccc2Cl)CC1`, for which the IC50 amounted to 150 nM. Against the preceding compound, the IC50 is about 5.4-fold lower. Compound `O=C(Cn1c(CCc2cccc(F)c2F)nc(=O)c2ccccc21)N(Cc1ccc(-c2ccc(C(F)(F)F)cc2)cc1)C1CCN(C2CCSCC2)CC1` yielded an IC50 of 860 nM. For `Cc1nc(-c2nc(N3CCOCC3)ncc2-c2ccsc2)sc1C`, the 50% inhibitory concentration (IC50) is 320 nM. `CN1CCC(c2c[nH]c3ccc(NC(=O)Nc4ccc(-c5ccncc5)cc4Cl)cc23)CC1` displayed a half-inhibitory concentration (IC50) of 840 nM.

In the case of `CCC(CC)(Cc1ccccc1)NC(=O)[C@H](CC1CCCCC1)Nc1ccc(C#N)c2ccccc12`, the IC50 amounted to 630 nM.

Compound `CCCC(C)Nc1nc(C)cc(N[C@@H](CC(C)C)C(=O)NCc2cccc(F)c2)n1` (stereo partly specified) came in with a concentration for half-maximal inhibition (IC50) of 1000 nM. On to `O=C(c1ccc(-c2ccc(-c3nc4ccc(C(F)(F)F)cc4[nH]3)s2)cc1)N1CCCCC1CN1CCC(O)C1` (stereo unspecified), for which the IC50 came out at 560 nM. Under `CN(CCN1CCCC1)c1nc2ccc(-n3cnc4cc(-c5ccc(Cl)cc5)sc4c3=O)cc2[nH]1` stands 820 nM; under `Oc1cccc2ccc(Nc3ccccn3)nc12`, 750 nM; under `COc1ccc2c(c1)CCN(CCN1CCC(CNC(=O)c3ccc(-c4ccc(C#N)cc4)cc3)CC1)C2`, 620 nM.

`O=C(c1cc(-c2ccco2)[nH]n1)N1CCN(S(=O)(=O)c2ccc(Cl)cc2)CC1` returned a half-inhibitory concentration (IC50) of 360 nM. This IC50 is about 1.7-fold lower than that of the compound before. For `CN(CCC(CCN1CCC(c2c[nH]c3ccccc23)CC1)c1ccccc1)C(=O)Nc1ccc(Cl)c(Cl)c1` (stereo unspecified), the IC50 worked out at 1190 nM.
